Measured values published in patent US20220213197A1 (priority 2019, published 2022).
Where “and” joins values, the source holds several entries; their conditions need not be identical. Equal entries are not always repeated. Where two headings read alike, the source gives them in different places.

Legend:
[1] = tested on: Klebsiella pneumoniae 8637 strain; test: Neutropenic lung infection model; type: in vivo, ICR mice; conditions: for Decrease in the number of CFU vs control (placebo): Day 5
[2] = tested on: Clostridium perfringens (ATCC 13124)
[3] = tested on: carrageenan induced inflammation in rats; test: Carrageenan induced paw oedema; type: in vivo
Method: Inflammatory response was induced in animals by subplantar injection (into the plantar aponeurosis of the left hind paw) of 0.1 ml 1% carrageenan solution.
The severity of inflammatory response was assessed by estimating oedema weight gain in mg calculated as a difference between the paw weights with and without oedema.

[4] = tested on: influenza A/California/07/09(H1N1)pdm09; type: in vivo, mice
[5] = tested on: Pseudomonas aeruginosa (RP73); test: Pseudomonas aeruginosa lung infection in rats; type: in vivo, Sprague-Dawley rats
[6] = tested on: Streptococcus pyogenes (ATCC BAA-2469); test: Soft tissue (thigh) infection model in neutropenic mice; type: in vivo; conditions: 24 hours post infection
[7] = tested on: Chlamydophila pneumonia CM1 strain; test: Lung infection model with Chlamydophila pneumonia; type: in vivo, C57BL/6J mice
[8] = tested on: Mycobacterium tuberculosis; test: Antituberculosis activity in guinea pig model of experimental tuberculosis; conditions: in vivo
[9] = tested on: Klebsiella pneumoniae BAA-1705; test: Bacterial pneumonia in neutropenic mice, AMC-resistant strain (Study No. 1); type: in vivo
[10] = 48 hours after infection (medicament: 48 hours and onwards)

C[C@@H](O)[C@H]1C(=O)N2C(C(=O)O)=C(SCCN=CN)C[C@H]12 [imipenem]
Animals survived ([1]; Day 1 after infection): 85% | Animals survived ([1]; Day 2): 70% | Animals survived ([1]; Day 3 (imipenem: Day 3 and onwards)): 50% | Decrease in the number of CFU vs control (placebo) ([1]; blood): 67% | Decrease in the number of CFU vs control (placebo) ([1]; kidneys): 61% | Decrease in the number of CFU vs control (placebo) ([1]; liver): 40% | Decrease in the number of CFU vs control (placebo) ([1]; lungs): 48% | Decrease in the number of CFU vs control (placebo) ([1]; spleen): 45%

CN(C)[C@@H]1C(O)=C(C(N)=O)C(=O)[C@@]2(O)C(O)=C3C(=O)c4c(O)cccc4[C@@](C)(O)[C@H]3C[C@@H]12 [tetracycline]
Animals alive ([2]; 24 hours after infection): 85% | Animals alive [2, 10]: 80% | Animals alive ([2]; 72 hours after infection): 80%

COc1ccc2c(c1)c(CC(=O)O)c(C)n2C(=O)c1ccc(Cl)cc1 [indomethacin, Indomethacin]
Decrease of oedema weight as compared to the control [3]: 57.9%

CCOC(=O)C1=C[C@@H](OC(CC)CC)[C@H](NC(C)=O)[C@@H](N)C1 [Tamiflu, Oseltamivir]
Body weights of experimental animals expressed as M ± SD ([4]; Day 0): 16.7 ± 1.2 | Body weights of experimental animals expressed as M ± SD ([4]; Day 5): 15.5 ± 1.4 | Body weights of experimental animals expressed as M ± SD ([4]; Day 9): 13.6 ± 1.7 | Body weights of experimental animals expressed as M ± SD ([4]; Day 12): 14.9 ± 2.2 | Body weights of experimental animals expressed as M ± SD ([4]; Day −5): 17.8 ± 1.2 | Body weights of experimental animals expressed as M ± SD ([4]; Day −15): 16.1 ± 1.0 | Protection index, % ([4]; PI=((Mc−Me)/Mc)×100%): 57.1% | MLE ([4]; mean life expectancy over 14 days): 8.6 days | Mortality rate, % ([4]; mouse, in vivo): 30% | Viral titer in lung tissue, Mean ([4]; mouse, in vivo): 4.8 Ig TCID50/0.2 ml | Viral titer in lung tissue, individual animals ([4]; mouse, in vivo, listed as 2): 4.5 Ig TCID50/0.2 ml (5×) and 5.0 Ig TCID50/0.2 ml (2×) and 4.0 Ig TCID50/0.2 ml and 5.5 Ig TCID50/0.2 ml and 6.0 Ig TCID50/0.2 ml | MLE increase ([4]; vs negative control): 0.2 days

NC[C@H]1O[C@H](O[C@H]2[C@H](O)[C@@H](O[C@H]3O[C@H](CO)[C@@H](O)[C@H](N)[C@H]3O)[C@H](N)C[C@@H]2N)[C@H](N)C[C@@H]1O [tobramycin]
Decrease of bronchoalveolar lavage CFU count compared to placebo ([5]; Day 5): 88% | Decrease of bronchoalveolar lavage CFU count compared to the untreated animals ([5]; Day 5): 88% | Reduction of lung CFU count compared to placebo ([5]; Day 5): 19% | Reduction of lung CFU count compared to the untreated animals ([5]; Day 5): 29% | Overall decrease in body weight by the end of the study ([5]; vs baseline): 4%

CC[C@H]1OC(=O)[C@H](C)C(=O)[C@H](C)[C@@H](O[C@@H]2O[C@H](C)C[C@H](N(C)C)[C@H]2O)[C@](C)(OC)C[C@@H](C)C(=O)[C@H](C)[C@H]2N(CCCCn3cnc(-c4cccnc4)c3)C(=O)O[C@]12C [placebo + T, telithromycin]
Mean bacterial burden in the femoral tissue [6]: 8.4 CFU/g, log10

CC[C@H]1OC(=O)[C@H](C)[C@@H](O[C@H]2C[C@@](C)(OC)[C@@H](O)[C@H](C)O2)[C@H](C)[C@@H](O[C@@H]2O[C@H](C)C[C@H](N(C)C)[C@H]2O)[C@](C)(O)C[C@@H](C)CN(C)[C@H](C)[C@@H](O)[C@]1(C)O [azithromycin]
Death rate ([7]; Day 3 after infection): 19% | IL-1β concentration in lung tissue, % of the control levels (Group 1) ([7]; Day 3 after infection): 17% | IL-6 concentration in lung tissue, % of the control levels (Group 1) ([7]; Day 3 after infection): 15% | Number of infected HEp2 cells (bacterial load of lung homogenate), % of placebo ([7]; Day 3 after infection): 15% | IL-1β concentration in lung tissue, % of the control levels (Group 1) ([7]; Day 6 after infection): 7% | IL-6 concentration in lung tissue, % of the control levels (Group 1) ([7]; Day 6 after infection): 8% | Number of infected HEp2 cells (bacterial load of lung homogenate), % of placebo ([7]; Day 6 after infection): 17% | IL-1β concentration in lung tissue, % of the control levels (Group 1) ([7]; Day 12 after infection): 6% | IL-6 concentration in lung tissue, % of the control levels (Group 1) ([7]; Day 12 after infection): 5% | Number of infected HEp2 cells (bacterial load of lung homogenate), % of placebo ([7]; Day 12 after infection): 5% | Survival rate ([7]; whole study, deaths first recorded on Day 3): 81%

CO[C@@]1(NC(=O)Cc2cccs2)C(=O)N2C(C(=O)O)=C(COC(N)=O)CS[C@@H]21 [cefoxitin]
Animals alive ([2]; 24 hours after infection): 55% | Animals alive [2, 10]: 15% | Animals alive ([2]; 72 hours after infection): 15%

CC(=O)NC[C@H]1CN(c2ccc(N3CCOCC3)c(F)c2)C(=O)O1 [placebo + L, linezolid]
Mean bacterial burden in the femoral tissue [6]: 5.5 CFU/g, log10

NNC(=O)c1ccncc1 [placebo + isoniazid, Isoniazid]
Difference between initial and final body weight of animals [8]: 180.6 ± 28.4 g | Life expectancy, units [8]: 2.7 ± 0.09 units

Gentamicin
Animals survived ([9]; AMC-resistant strain, 10^6 CFU/mouse): 70% | Body weight evolution ([9]; follow-up period): body weight evolution was observed from 54 h
